SMILES strings stand for the structures. Read-outs that look alike come from different tables or passages of the source.

This is an account of results in patent publication US20230031406A1, “COMPOUNDS AND COMPOSITIONS FOR TREATING CONDITIONS ASSOCIATED WITH NLRP ACTIVITY” (Novartis AG, priority 2018, published 2023).

In the test the test system is PMA-differentiated THP-1 cells. The test can be described thus: IL-1β production in PMA-differentiated THP-1 cells stimulated with gramicidin (hTHP-1 assay containing 2% fetal bovine serum; Procedures 1 and 2). The following applies: 2% fetal bovine serum. In kind it is cell-based, human. As for the experimental part:
The following protocol is suitable for testing the activity of the compounds disclosed herein. Procedure 1: IL-1β Production in PMA-Differentiated THP-1 Cells Stimulated with Gramicidin.
THP-1 cells were purchased from the American Type Culture Collection and sub-cultured according to instructions from the supplier. Cells were cultured in complete RPMI 1640 (containing 10% heat inactivated FBS, penicillin (100 units/ml) and streptomycin (100 μg/ml)), and maintained in log phase prior to experimental setup. Prior to the experiment, compounds were dissolved in dimethyl sulfoxide (DMSO) to generate a 30 mM stock. The compound stock was first pre-diluted in DMSO to 3, 0.34, 0.042 and 0.0083 mM intermediate concentrations and subsequently spotted using Echo550 liquid handler into an empty 384-well assay plate to achieve desired final concentration (e.g. 100, 33, 11, 3.7, 1.2, 0.41, 0.14, 0.046, 0.015, 0.0051, 0.0017 μM). DMSO was backfilled in the plate to achieve a final DMSO assay concentration of 0.37%. The plate was then sealed and stored at room temperature until required.
THP-1 cells were treated with PMA (Phorbol 12-myristate 13-acetate) (20 ng/ml) for 16-18 hours. On the day of the experiment the media was removed and adherent cells were detached with trypsin for 5 minutes. Cells were then harvested, washed with complete RPMI 1640, spun down, and resuspended in RPMI 1640 (containing 2% heat inactivated FBS, penicillin (100 units/ml) and streptomycin (100 μg/ml). The cells were plated in the 384-well assay plate containing the spotted compounds at a density of 50,000 cells/well (final assay volume 50 μl). Cells were incubated with compounds for 1 hour and then stimulated with gramicidin (5 μM) (Enzo) for 2 hours. Plates were then centrifuged at 340 g for 5 min. Cell free supernatant (40 μL) was collected using a 96—CHannel PlateMaster (Gilson) and the production of IL-1β was evaluated by HTRF (cisbio). The plates were incubated for 18 h at 4° C. and read using the preset HTRF program (donor emission at 620 nm, acceptor emission at 668 nm) of the SpectraMax i3x spectrophotometer (Molecular Devices, software SoftMax 6). A vehicle only control and a dose titration of CRID3 (100-0.0017 μM) were run concurrently with each experiment.
Procedure 2: IL-1β Production in PMA-Differentiated THP-1 Cells Stimulated with Gramicidin.
THP-1 cells were purchased from the American Type Culture Collection and sub-cultured according to instructions from the supplier. Prior to experiments, cells were cultured in complete RPMI 1640 (containing 10% heat inactivated FBS, penicillin (100 units/ml) and streptomycin (100 μg/ml)), and maintained in log phase prior to experimental setup. Prior to the experiment THP-1 were treated with PMA (Phorbol 12-myristate 13-acetate) (20 ng/ml) for 16-18 hours. Compounds were dissolved in dimethyl sulfoxide (DMSO) to generate a 30mM stock. On the day of the experiment the media was removed and adherent cells were detached with trypsin for 5 minutes. Cells were then harvested, washed with complete RPMI 1640, spun down, resuspended in RPMI 1640 (containing 2% heat inactivated FBS, penicillin (100 units/ml) and streptomycin (100 μg/ml). The cells were plated in a 384-well plate at a density of 50,000 cells/well (final assay volume […]). Compounds were first dissolved in assay medium to obtain a 5× top concentration of 500 μM. 10 step dilutions (1:3) were then undertaken in assay medium containing 1.67% DMSO. 5× compound solutions were added to the culture medium to achieve desired final concentration (e.g. 100, 33, 11, 3.7, 1.2, 0.41, 0.14, 0.046, 0.015, 0.0051, 0.0017 μM). Final DMSO concentration was at 0.37%. Cells were incubated with compounds for 1 hour and then stimulated with gramicidin (5 μM) (Enzo) for 2 hours. Plates were then centrifuged at 340 g for 5 min. Cell free supernatant (40 μL) was collected using a 96—CHannel PlateMaster (Gilson) and the production of IL-1β was evaluated by HTRF (cisbio). […]

Where [1] appears, read: Homo sapiens, THP-1, Table B2, numeric bounds, read-out: hTHP-1 IC50.
Setting [2] is: Homo sapiens, THP-1, Table B1, class symbols, read-out: Average IC50 of compounds in hTHP-1 assay: hTHP-1 IC50.
Where [3] appears, read: Homo sapiens, THP-1, Table B1, numeric bounds, read-out: Average IC50 of compounds in hTHP-1 assay: hTHP-1 IC50.
Setting [4] is: Table B3, hTHP-1 assay, class symbols, read-out: IC50.
Setting [5] is: Homo sapiens, THP-1, Table B2, class symbols, read-out: hTHP-1 IC50.
Where [6] appears, read: Homo sapiens, THP-1, Table B3, hTHP-1 assay, numeric values, read-out: IC50.
The mark [7] stands for this setting: Table B2, class symbols, read-out: hTHP-1 IC50.

On to `Cc1c(C2CC2)nc2c(c1NC(=O)N=S(N)(=O)c1ccn(C(F)F)n1)CCC2` (single isomer, unassigned) [Compound 676a, (S) or (R)-N′-((2-cyclopropyl-3-methyl-6,7-dihydro-5H-cyclopenta[b]pyridin-4-yl)carbamoyl)-1-(difluoromethyl)-1H-pyrazole-3-sulfonimidamide], for which the concentration for half-maximal inhibition (IC50) under setting [1] was greater than 30 µM.
As for `CC(C)c1ncc(F)c(C(C)C)c1NC(=O)N=S(N)(=O)c1cc(C(C)(C)O)cs1` (stereo not shown) [Compound 148, N′-((5-fluoro-2,4-diisopropylpyridin-3-yl)carbamoyl)-4-(2-hydroxypropan-2-yl)thiophene-2-sulfonimidamide], under setting [2], the concentration for half-maximal inhibition (IC50) lay in the range of 0.04 to 0.2 µM.
Regarding `NS(=O)(=NC(=O)Nc1c2c(nc(C3CC3)c1C1CC1)CCC2)c1ccn(C(F)F)n1` (stereo not shown) [Example 571, N′-((2,3-dicyclopropyl-6,7-dihydro-5H-cyclopenta[b]pyridin-4-yl)calbamoyl)-1-(difluoromethyl)-1H-pymzole-3-sulfonimidamide], for the setting “Homo sapiens, THP-1, Table B3, hTHP-1 assay, class symbols, read-out: IC50”, the IC50 is 1 to 5 µM.
On to `CCCc1cc(NC(=O)N=S(N)(=O)c2cnc(C(C)(C)O)s2)c2c(n1)CCC2` (stereo not shown) [Compound 112, 2-(2-hydroxypropan-2-yl)-N′-((2-propyl-6,7-dihydro-5H-cyclopenta[b]pyridin-4-yl)carbamoyl)thiazole-5-sulfonimidamide], for which the half-maximal inhibitory concentration (IC50) under setting [3] was greater than 30 µM.
As to `C[C@@H]1CCc2c1nc1c(c2NC(=O)N=S(N)(=O)c2nn(C(F)F)cc2F)CCC1` (single isomer, unassigned) [Example 680, (S) or (R)-1-(difluoromethyl)-4-fluoro-N′-(((R)-3-methyl-1,2,3,5,6,7-hexahydrodicyclopenta[b,e]pyridin-8-yl)carbamoyl)-1H-pyrazole-3-sulfonimidamide], the IC50 under setting [4] lay in the range of 5 to 30 µM.
On to `CC1(C)CCc2c1nc1c(c2NC(=O)N=S(N)(=O)c2cnn(C(F)F)c2)CCC1` (stereo not shown) [Compound 637, 1-(Difluoromethyl)-N′-((3,3-dimethyl-1,2,3,5,6,7-hexahydrodicyclopenta[b,e]pyridin-8-yl)carbamoyl)-1H-pyrazole-4-sulfonimidamide], for which the half-maximal inhibitory concentration (IC50) under setting [5] lay in the range of 5 to 30 µM.
With `Cc1c(C2(F)CC2)nc2c(c1NC(=O)N=S(N)(=O)c1sc(C(C)(C)O)cc1F)CCC2` (single isomer, unassigned) [Example 686, (S) or (R)-3-fluoro-N′-((2-(1-fluorocyclopropyl)-3-methyl-6,7-dihydro-5H-cyclopenta[b]pyridin-4-yl)carbamoyl)-5-(2-hydroxypropan-2-yl) thiophene-2-sulfonimidamide], under setting [6], the IC50 was greater than 30 µM.
For the molecule `CC(C)c1cc(NC(=O)N=S(N)(=O)c2cc(C(C)(C)O)cs2)c2c(n1)CCC2` (stereo not shown) [Compound 182, 4-(2-hydroxypropan-2-yl)-N′-((2-isopropyl-6,7-dihydro-5H-cyclopenta[b]pyridin-4-yl)carbamoyl)thiophene-2-sulfonimidamide], the IC50 under setting [3] is greater than 14 µM.
Take `CC(C)(O)c1sc(S(N)(=O)=NC(=O)Nc2c3c(nc4c2CCC4)CCC3)cc1F` (single isomer, unassigned) [Compound 678b, (S) or (R)-4-Fluoro-N′-((1,2,3,5,6,7-hexahydrodicyclopenta [b,e]pyridin-8-yl)carbamoyl)-5-(2-hydroxypropan-2-yl)thiophene-2-sulfonimidamide]: the half-maximal inhibitory concentration (IC50) under setting [1] is greater than 30 µM.
For the molecule `Cc1c(C2(C)CC2)nc2c(c1NC(=O)N=S(N)(=O)c1cc(C(C)(C)O)cs1)CCC2` (single isomer, unassigned) [Compound 669b, (R) or (S)-4-(2-Hydroxypropan-2-yl)-N′-((3-methyl-2-(1-methylcyclopropyl)-6,7-dihydro-5H-cyclopenta[b]pyridin-4-yl)carbamoyl) thiophene-2-sulfonimidamide], the IC50 under setting [5] lay in the range of 5 to 30 µM.
With `N[S@@](=O)(=NC(=O)Nc1c2c(nc(C3CC3)c1C1CC1)CCC2)c1ccn(C(F)F)n1` [Compound 728b], the half-maximal inhibitory concentration (IC50) under setting [5] lay within 0.2 to 1 µM.
`NS(=O)(=NC(=O)Nc1c2c(nc(C(F)(F)F)c1C1CC1)CCC2)c1nn(C(F)F)cc1F` (stereo not shown) [Compound 984a]: the IC50 (Table B3, hTHP-1 assay, class symbols, listed as Compound 984a, read-out: IC50) lay in the range of 5 to 30 µM.
Turning to `Cc1c(C2CC2)nc2c(c1NC(=O)N=S(N)(=O)c1cnn3c1OCCC3)CCC2` (single isomer, unassigned) [Compound 306b, (R) or (S)-N′-((2-cyclopropyl-3-methyl-6,7-dihydro-5H-cyclopenta[b]pyridin-4-yl)carbamoyl)-6,7-dihydro-5H-pyrazolo[5,1-b][1,3] oxazine-3-sulfonimidamide], the IC50 under setting [5] lay in the range of 5 to 30 µM.
On the same count and under the same terms, with `CC(C)(CO)c1ncc(S(N)(=O)=NC(=O)Nc2c3c(nc4c2CCC4(C)C)CCC3)s1` (stereo not shown) [Compound 737] the figure was 0.2 to 1 µM.
Turning to `Cc1c(C(F)(F)F)nc2c(c1NC(=O)N=S(N)(=O)c1cc(CO)n(C(C)C)n1)CCC2` (single isomer, unassigned) [Example 720, (R) or (S)-5-(hydroxymethyl)-1-isopropyl-N′-((3-methyl-2-(trifluoromethyl)-6,7-dihydro-5H-cyclopenta[b]pyridin-4-yl)carbamoyl)-1H-pyrazole-3-sulfonimidamide], the concentration for half-maximal inhibition (IC50) under setting [6] was roughly 30 µM.
For the molecule `CCn1cc(F)c(S(N)(=O)=NC(=O)Nc2c3c(nc4c2CC[C@H]4C)CCC3)n1` (single isomer, unassigned) [Example 669, (R) or (S)-1-ethyl-4-fluoro-N′-(((R)-3-methyl-1,2,3,5,6,7-hexahydrodicyclopenta[b,e]pyridin-8-yl)carbamoyl)-1H-pyrazole-3-sulfonimidamide], the concentration for half-maximal inhibition (IC50) under setting [4] lay in the range of 0.008 to 0.04 µM.
For the molecule `CC(C)(O)c1cc(Cl)c(S(N)(=O)=NC(=O)Nc2c3c(nc4c2CCC4)CCC3)s1` (single isomer, unassigned) [Compound 691a, (S) or (R)-3-Chloro-N′-((1,2,3,5,6,7-hexahydrodicyclopenta [b,e]pyridin-8-yl)carbamoyl)-5-(2-hydroxypropan-2-yl)thiophene-2-sulfonimidamide], the concentration for half-maximal inhibition (IC50) under setting [7] fell in the range of 5 to 30 µM.
`CC(C)(O)c1cc(S(N)(=O)=NC(=O)Nc2c3c(nc4c2CCC4(C)C)CCC3)nn1-c1ccc(F)cc1` (single isomer, unassigned) [Compound 705b, (R) or (S)-N′-((3,3-dimethyl-1,2,3,5,6,7-hexahydrodicyclopenta [b,e]pyridin-8-yl)carbamoyl)-1-(4-fluorophenyl)-5-(2-hydroxypropan-2-yl)-1H-pyrazole-3-sulfonimidamide]: the IC50 under setting [7] was in the range of 1 to 5 µM.
As to `CC(C)c1nc(C(F)(F)F)nc(C(C)C)c1NC(=O)N=S(N)(=O)c1sc(C(C)(C)O)nc1CO` (stereo not shown) [Compound 179, N′-((4,6-diisopropyl-2-(trifluoromethyl)pyrimidin-5-yl)carbamoyl)-4-(hydroxymethyl)-2-(2-hydroxypropan-2-yl)thiazole-5-sulfonimidamide], under setting [2], the IC50 lay within 1 to 5 µM.

Usually IC50 stands for the point on the concentration scale where inhibition reaches its midpoint.
